In publication PMC11568336, “Biochemical properties of immobilized horseradish peroxidase on ceramic and its application in removal of azo dye” (Scientific Reports, 2024):

Tested on: T1, Horseradish peroxidase (HRP), soluble HRP
T1 construct: gene PRXC1A; free (soluble) enzyme
Experiment: absorbance at […] nm, Lineweaver-Burk plot
Type: biochemical, Armoracia rusticana
Details: soluble (free) enzyme; co-substrate H2O2 (8 mM in standard assay); 20 mM sodium acetate pH 6.0

Work on `COc1ccccc1O` [guaiacol] yielded a Km of 35.5 mM.
